One data set deals with human PHD2184-418 (Homo sapiens (Human), UniProt Q9GZT9). The experiment in a line: PHD2 inhibitory test (fluorescence polarization, binding between PHD2 and HIF-1α). The settings on record: human PHD2184-418, FITC-labeled HIF-1α556-574, 2 μM 2-oxoglutarate, 37° C. 60 minutes. Summed up:
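N-His-tagged human PHD2 (residues 184–418, E. coli-expressed) was preincubated with compound, then FITC-Ahx-HIF-1α556-574 peptide was added in pH 7.4 HEPES buffer with 10 μM MnCl2 and 2 μM 2-oxoglutarate. After 60 min at 37 °C, fluorescence polarization (ex 470/em 530 nm) was read. Inhibition was calculated against compound-free wells.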
On the technique in general: Fluorescence polarisation rises when a labelled molecule tumbles more slowly, as on binding a larger partner.

A short description of data set [1]: Rat PK study: concentration of compounds in large intestine tissue and plasma. The settings on record: male, SD, 3 mg/kg oral; for Kp at 8 h: large intestine tissue / plasma, read-out: C/P: ratio of the above Colon and Plasma; for AUC / Cmax: non-fasted; for AUC: read-out: AUC: area under the plasma test compound concentration-time curve (converted); for Cmax: read-out: Cmax: maximum plasma concentration of test compounds in the case of oral administration. It counts as in vivo. As for the experimental part: Test Example 3 Concentration of Compounds in Large Intestine Tissue
Test compounds (3 mg/kg/5 mL) prepared by 0.05% methylcellulose were orally administered to non-fasted rats (SD, 8-weeks-old, male, Japan SLC). Blood samples were collected from jugular vein at 0.25, 0.5, 1, 2, 4, 6 and 8 hours after the administration. Laparotomy was performed under isoflurane anesthesia and large intestine was isolated. Collected distal large intestine (about 5 cm) was cut open, and then the large intestine was washed with saline on a dish. After washing, the large intestine was minced by a small scissors. About 150 mg thereof was moved to tube. To the tube was added 100 μL of saline, the mixture was homogenized using shake master (1000 rpm×30 minutes). Samples were prepared by the addition with quadruple volume of saline as final volume. The concentrations of the test compound in large intestine tissue and plasma were measured through a quantitative analysis using liquid chromatography-mass spectrometry (LC/MS).

In data set [2] the test system is TNBS induced colitis model rat. The experiment in a line: Therapeutic effect in TNBS induced colitis model rat (intestinal permeability of FITC). Format: in vivo. The settings on record: po, 72 h, 3 mg/kg orally once a day for 3 days, SD rats, mean, test compounds-free group 0, TNBS-untreated group 100, read-out: Inhibition (%): suppressive rate on the intestinal permeability. The protocol: Test Example 2 Therapeutic Effect in Colitis Model
(1) TNBS Induced Colitis Model Rat
SD rats: 8-weeks-old male SLC (Japan SLC) were used. Under pentobarbital anesthesia, 300 μL of TNBS (28 mg/mL) prepared by 50% ethanol was administered at a point 8 cm from anus in large intestine to cause inflammation. To the solvent-treated group was administrated 300 μL of 50% ethanol. Animals were fasted for 48 hours prior to administration of TNBS. Test compounds (3 mg/kg) prepared by 0.05% methylcellulose solution were orally administered once a day from next day, and it was administered for a total of 3 days. After administering for 3 days, 50 mg/kg FITC was orally administered at 4 hours after administration. Blood samples were collected from jugular vein under isoflurane anesthesia after 4 hours. The serum was centrifuged and fluorescence intensity was detected by PHERAstar FSX (BMG Labtech) to measure the concentration of FITC permeating into circulating blood through the mesentery. The suppressive rate on the intestinal permeability of test compounds was calculated based on the value of test compounds-free group as 0 and the value of TNBS-untreated group as 100.

Setting [3] is: large intestine tissue (distal large intestine), read-out: Colon: concentrations of the test compound in large intestine tissue after 8 hours.
Where [4] appears, read: plasma, read-out: Plasma: plasma test compound concentration after 8 hours.

Like-named read-outs stand apart in the source and are kept apart here. Bounds are passed on as bounds.

What is called IC50 is the concentration needed to halve the response being measured. A lower IC50 goes with greater potency in that assay.

Chain of human PHD2184-418 (Q9GZT9 184-418): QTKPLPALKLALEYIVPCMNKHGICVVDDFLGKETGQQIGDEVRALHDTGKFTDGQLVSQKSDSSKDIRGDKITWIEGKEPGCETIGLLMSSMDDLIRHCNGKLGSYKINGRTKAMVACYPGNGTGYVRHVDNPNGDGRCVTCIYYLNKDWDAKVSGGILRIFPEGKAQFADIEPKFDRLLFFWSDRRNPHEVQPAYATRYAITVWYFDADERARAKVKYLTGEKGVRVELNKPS

On human PHD2184-418, `Cn1c(C(=O)O)cnc1CN1CC[C@H](n2c(=O)n(-c3ccc(-c4ccc(C(=O)O)cc4)cc3O)c3cccnc32)C1` [Example 49, (S)-2-((3-(1-(4′-Carboxy-3-hydroxy-[1,1′-biphenyl]-4-yl)-2-oxo-1,2-dihydro-3H-imidazo[4,5-b]pyridin-3-yl)pyrrolidin-1-yl)methyl)-1-methyl-1H-imidazole-5-carboxylic acid] registered an IC50 of 120 nM. The results for the concentration at 8 h in data set [1] (setting [3]) and in data set [1] (setting [4]) were 201 ng/g and under 1 ng/mL, respectively. Besides, the Kp at 8 h in data set [1] is over 201. Further, in data set [1] (plasma), the AUC was 15 ng·h/mL. Further, in data set [1] (plasma), the Cmax is 4 ng/mL. In data set [2], the inhibition in vivo at 3 mg/kg was found to be 82%.

As for `Cn1c(C(=O)O)cnc1CN1CC[C@H](n2c(=O)n(-c3ccc(-c4ccc(C(=O)O)cc4)cc3)c3cccnc32)C1` [Example 83, (S)-2-((3-(1-(4′-Carboxy-[1,1′-biphenyl]-4-yl)-2-oxo-1,2-dihydro-3H-imidazo[4,5-b]pyridin-3-yl)pyrrolidin-1-yl)methyl)-1-methyl-1H-imidazole-5-carboxylic acid], the IC50 at human PHD2184-418 was determined as 140 nM. In addition, the concentration at 8 h in data set [1] (setting [3]) came out at 54 ng/g. Besides, in data set [1], the Kp at 8 h is over 54. In addition, in data set [1] (setting [4]), the concentration at 8 h is under 1 ng/mL. Besides, in data set [1] (plasma), the AUC was 21.5 ng·h/mL and the Cmax was 5 ng/mL. Further, the inhibition in vivo at 3 mg/kg in data set [2] was determined as 85%.

`Cn1c(C(=O)O)cnc1CN1CC[C@H](n2c(=O)n(-c3ccc(-c4ccc(C(=O)O)cc4)c(O)c3)c3cccnc32)C1` [Example 84, (S)-2-((3-(1-(4′-Carboxy-2-hydroxy-[1,1′-biphenyl]-4-yl)-2-oxo-1,2-dihydro-3H-imidazo[4,5-b]pyridin-3-yl)pyrrolidin-1-yl)methyl)-1-methyl-1H-imidazole-5-carboxylic acid] yielded an IC50 at human PHD2184-418 of 150 nM. Besides, the values for the concentration at 8 h in data set [1] (setting [3]) and in data set [1] (setting [4]) were 99 ng/g and under 1 ng/mL, respectively. Also, the Kp at 8 h in data set [1] was over 99. Moreover, the AUC in data set [1] (plasma) is 1.27 ng·h/mL. For the same molecule, in data set [1] (plasma), the Cmax was 1 ng/mL. For the same molecule, in data set [2], the inhibition in vivo at 3 mg/kg was 117%.
